Measured values reported in publication PMC10702189, “Tetrazine Glycoconjugate for Pretargeted Positron Emission Tomography Imaging of trans-Cyclooctene-Functionalized Molecular Spherical Nucleic Acids” (ACS Omega, 2023).

Test: Stability in end product formulation by analytical radio-HPLC
Assay type: physicochemical
Settings: for 6 h from EOS, end product formulation (PBS, ethanol ≤10%) at r.t.
Description: Chemical and radiochemical purity and stability of precursors and radiotracers were measured with analytical HPLC (Hitachi LaChrom Elite, Schaumburg, USA). Jupiter Proteo reversed-phase C18 column (4 μm, 250 mm × 4.6 mm) was used at a flow rate of 1 mL/min. HPLC eluents were A, 0.1% trifluoroacetic acid (TFA, v/v) in water; B, 0.1% TFA in acetonitrile. The gradient changed from 15% to 35% in 0–15 min. For radiolabeled MSNA quality control, SEC at a flow rate of 1 mL/min was used (Waters Protein-Pak 33SW (7.5 × 300 mm), eluent 0.1 M KH2PO4, pH 7.0).
The cyclotron produced [^18F]fluoride, dissolved in ^18O-enriched water (Rotem Industries Limited, Arava, Israel), was trapped in a Sep-Pak QMA Plus Light cartridge (Waters, preconditioned with 10 mL of 0.5 M K2CO3, 15 mL of water). [^18F]F^– was eluted from the cartridge with 2 mL of QMA-eluent solution (stock solution contains 237.5 mg of Kryptofix 2.2.2, 42.5 mg of potassium carbonate, 2 mL of Milli-Q water in 50 mL of acetonitrile). The reaction mixture was evaporated to dryness with Ar gas flow (70 mL/min for 10 min, and then 80 mL/min for 5–10 min more) under heating at 120 °C. […] The stability of [^18F]FDG-Tz was analyzed by analytical radio-HPLC up to 6 h after EOS in the end product formulation at r.t.

Radiochemical purity retained (stability): > 98%
Compound: O=C(CCON=C[C@H]([18F])[C@@H](O)[C@H](O)[C@H](O)CO)NCc1ccc(-c2nncnn2)cc1 [[^18F]FDG-Tz]
